Source: US20130244999A1, “Substituted Heterocyclic Compounds” (Incyte Corporation, priority 2008, published 2013)

Target: T1, histamine H4 receptor (Homo sapiens, UniProt Q9H3N8)
T1 construct: expressed in transfected cells; host or cells: HEK293SFM cells (membrane preparation)
Assay: Inhibition of histamine H4 receptor (Table A1; H4 membrane binding assay)
Settings: not given
Procedure, shortened: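 Radioligand binding was measured by filtration through PEI-treated GF/B filters with scintillation counting, using 1000× unlabeled ligand to define nonspecific binding. Membranes were prepared from HEK293SFM cells recombinantly expressing human H4 in ice-cold 50 mM Tris-HCl, pH 7.5, plus protease inhibitors.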

T1 sequence (Q9H3N8 whole entry): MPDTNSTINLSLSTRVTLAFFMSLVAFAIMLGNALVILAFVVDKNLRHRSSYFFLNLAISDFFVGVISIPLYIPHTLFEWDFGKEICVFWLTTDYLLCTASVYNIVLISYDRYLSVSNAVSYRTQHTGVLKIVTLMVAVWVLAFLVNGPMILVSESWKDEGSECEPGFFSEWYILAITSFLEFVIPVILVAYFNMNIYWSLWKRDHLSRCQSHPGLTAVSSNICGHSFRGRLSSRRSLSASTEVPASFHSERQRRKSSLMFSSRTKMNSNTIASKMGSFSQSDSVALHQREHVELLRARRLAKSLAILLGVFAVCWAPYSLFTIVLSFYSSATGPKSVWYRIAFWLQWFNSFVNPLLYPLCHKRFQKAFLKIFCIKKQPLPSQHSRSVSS

Compound	inhibition at 1 µM [%]
CC1Cc2ccc(-c3cc(C(=O)N(C)C)n(C)c3)cc2CN1c1cc(N2CCN(C)CC2)nc(N)n1 (single isomer, unassigned) [Example 89B, 4-{2-[2-Amino-6-(4-methylpiperazin-1-yl)pyrimidin-4-yl]-3-methyl-1,2,3,4-tetrahydroisoquinolin-7-yl}-N,1N,1-trimethyl-1H-pyrrole-2-carboxamide]	67

Same assay, conditions: histamine H4 receptor; "> a" = exceeds experiment limit

Compound	IC50 [µM]
CC1Cc2ccc(-c3ccc(C(=O)N4CCCC4)nc3)cc2CN1c1cc(N2CCN(C)CC2)nc(N)n1 (single isomer, unassigned) [Example 55A]	0.095
CC1Cc2ccc(-c3cnn(CC4CC4)c3)cc2CN1c1cc(N2CCN(C)CC2)nc(N)n1 (single isomer, unassigned) [Example 102, 4-[7-[1-(Cyclopropylmethyl)-1H-pyrazol-4-yl]-3-methyl-3,4-dihydroisoquinolin-2(1H)-yl]-6-(4-methylpiperazin-1-yl)pyrimidin-2-amine]	0.042
CC1Cc2ccc(-c3ncc(C(=O)N(C)C)s3)cc2CN1c1cc(N2CCN(C)CC2)nc(N)n1 (centres unmarked) [Example 134, 2-{2-[2-Amino-6-(4-methylpiperazin-1-yl)pyrimidin-4-yl]-3-methyl-1,2,3,4-tetrahydroisoquinolin-7-yl}-N,N-dimethyl-1,3-thiazole-5-carboxamide]	0.038
CCC(=O)N1CCC(c2ccc3c(c2)CN(c2cc(N4CCN(C)CC4)nc(N)n2)C(C)C3)CC1 (centres unmarked) [Example 149, 4-(4-Methylpiperazin-1-yl)-6-[3-methyl-7-(1-propionylpiperidin-4-yl)-3,4-dihydroisoquinolin-2 (1H)-yl]pyrimidin-2-amine]	0.0261
CN1CCN(c2cc(N3CCc4ccc(-c5nc(C(=O)N6CCCC6)cs5)cc4C3)nc(N)n2)CC1 [Example 48, 4-(4-Methylpiperazin-1-yl)-6-[7-[4-(pyrrolidin-1-ylcarbonyl)-1,3-thiazol-2-yl]-3,4-dihydroisoquinolin-2(1H)-yl]pyrimidin-2-amine]	0.2
CNC(=O)c1ccc(-c2ccc3c(c2)CN(c2cc(N4CCN(C)CC4)nc(N)n2)C(CO)C3)cn1 (single isomer, unassigned) [Example 81B, 5-[2-[2-amino-6-(4-methylpiperazin-1-yl)pyrimidin-4-yl]-3-(hydroxymethyl)-1,2,3,4-tetrahydroisoquinolin-7-yl]-N-methylpyridine-2-carboxamide]	0.034
CN1CCN(c2cc(N3CCc4ccc(N5CCC(c6ccncc6)CC5)cc4C3)nc(N)n2)CC1 [Example 38, 4-(4-Methylpiperazin-1-yl)-6-[7-(4-pyridin-4-ylpiperidin-1-yl)-3,4-dihydroisoquinolin-2(1H)-yl]pyrimidin-2-amine]	0.186
CN1CCN(c2cc(N3CCc4ccc(C(=O)NC5CCCC5)cc4C3)nc(N)n2)CC1 [Example 28, 2-[2-Amino-6-(4-methylpiperazin-1-yl)pyrimidin-4-yl]-N-cyclopentyl-1,2,3,4-tetrahydroisoquinoline-7-carboxamide]	0.754
CC(=O)N1CCC(c2ccc3c(c2)CN(c2cc(N4CCN(C)CC4)nc(N)n2)C(C)C3)CC1 (centres unmarked) [Example 146, 4-[7-(1-Acetylpiperidin-4-yl)-3-methyl-3,4-dihydroisoquinolin-2 (1H)-yl]-6-(4-methylpiperazin-1-yl)pyrimidin-2-amine]	0.0228
CC1Cc2ccc(-c3ccnc(C(=O)N(C)CCN(C)C)c3)cc2CN1c1cc(N2CCN(C)CC2)nc(N)n1 (single isomer, unassigned) [Example 68A, 4-{2-[2-amino-6-(4-methylpiperazin-1-yl)pyrimidin-4-yl]-3-methyl-1,2,3,4-tetrahydroisoquinolin-7-yl}-N-[2-(dimethylamino)ethyl]-N-methylpyridine-2-carboxamide]	0.03
CC1Cc2ccc(-c3ccc(C(=O)N4CCC4)nc3)cc2CN1c1cc(N2CCN(C)CC2)nc(N)n1 (single isomer, unassigned) [Example 53A, 4-[7-[6-(azetidin-1-ylcarbonyl)pyridin-3-yl]-3-methyl-3,4-dihydroLsoquinolin-2(1H)-yl]-6-(4-methylpiperazin-1-yl)pyrimidin-2-amine]	0.201
CC1Cc2ccc(-c3cnn(CCC(N)=O)c3)cc2CN1c1cc(N2CCN(C)CC2)nc(N)n1 (single isomer, unassigned) [Example 114, 3-(4-{2-[2-Amino-6-(4-methylpiperazin-1-yl)pyrimidin-4-yl]-3-methyl-1,2,3,4-tetrahydroisoquinolin-7-yl}-1H-pyrazol-1-yl)propanamide]	0.034
CC1Cc2ccc(-c3ccn(CCC#N)n3)cc2CN1c1cc(N2CCN(C)CC2)nc(N)n1 (single isomer, unassigned) [Example 83A, 3-(3-{2-[2-Amino-6-(4-methylpiperazin-1-yl)pyrimidin-4-yl]-3-methyl-1,2,3,4-tetrahydroisoquinolin-7-yl}-1H-pyrazol-1-yl)propanenitrile]	0.033
CCNC(=O)c1ccc(-c2ccc3c(c2)CN(c2cc(N4CCN(C)CC4)nc(N)n2)C(C)C3)nc1 (single isomer, unassigned) [Example 71, 6-{2-[2-Amino-6-(4-methylpiperazin-1-yl)pyrimidin-4-yl]-3-methyl-1,2,3,4-tetrahydroisoquinolin-7-yl}-N-ethylnicotinamide]	0.153
CC1Cc2ccc(-c3ccnc(C(=O)N4CCC(N(C)C)C4)c3)cc2CN1c1cc(N2CCN(C)CC2)nc(N)n1 (single isomer, unassigned) [Example 67A, 4-[7-(2-{[3-(dimethylamino)pyrrolidin-1-yl]carbonyl}pyridin-4-yl)-3-methyl-3,4-dihydroisoquinolin-2(1H)-yl]-6-(4-methylpiperazin-1-yl)pyrimidin-2-amine]	0.056
CC1Cc2ccc(-c3ccnc(C(=O)N4CC[C@H](O)C4)c3)cc2CN1c1cc(N2CCN(C)CC2)nc(N)n1 (single isomer, unassigned) [Example 65A]	0.107
CC1Cc2ccc(-c3cc(C(=O)N4CCC(N(C)C)C4)n(C)c3)cc2CN1c1cc(N2CCN(C)CC2)nc(N)n1 (single isomer, unassigned) [Example 94, 4-[7-(5-{[3-(Dimethylamino)pyrrolidin-1-yl]carbonyl}-1-methyl-1H-pyrrol-3-yl)-3-methyl-3,4-dihydroisoquinolin-2(1H)-yl]-6-(4-methylpiperazin-1-yl)pyrimidin-2-amine]	0.03
CCn1ccc(-c2ccc3c(c2)CN(c2cc(N4CCN(C)CC4)nc(N)n2)C(C)C3)n1 (single isomer, unassigned) [Example 86B, 4-[7-(1-Ethyl-1H-pyrazol-3-yl)-3-methyl-3,4-dihydroisoquinolin-2(1H)-yl]-6-(4-methylpiperazin-1-yl)pyrimidin-2-amine]	0.231
CC1Cc2ccc(-c3cnn(C(C)C)c3)cc2CN1c1cc(N2CCN(C)CC2)nc(N)n1 (single isomer, unassigned) [Example 105, 4-[7-(1-Isopropyl-1H-pyrazol-4-yl)-3-methyl-3,4-dihydroisoquinolin-2(1H)-yl]-6-(4-methylpiperazin-1-yl)pyrimidin-2-amine]	0.053
